Data on 4 compounds can be found in US4908138A (priority 1987, dated 1990).

Structures are written as SMILES.

A short description of assay [1]: Reduction of the solubility of synthetic apatite after treatment. The following applies: pH 5, consumption of lactic acid; comparison with untreated apatite. The procedure: The hydroxyacetonitrile diphosphonic acid of the invention effectively reduces the solubility of apatite by absorbing it on the tartar surface. To determine this property, the solubility of synthetic apatite after treatment with the hydroxyacetonitrile diphosphonic acid is determined by comparison with untreated apatite. To this end, a suspension of apatite is kept at pH 5 by neutralizing the hydroxyl ions passing into solution with lactic acid and determining the consumption of acid required for this purpose.

The nature of assay [2]: Hampshire test (calcium complexing power). It is filed as physicochemical. The following applies: pH 11; titrated with 0.2 molar calcium chloride until it remained cloudy; used as tetrasodium salt, converted for the pure diphosphonic acid. As for the experimental part:
The calcium complexing power was determined by the Hampshire test in which the hydroxyacetonitrile diphosphonic acid, to which Na2 CO3 has been added, was titrated with a 0.2 molar calcium chloride solution at pH 11 until it remained cloudy. Hydroxyacetonitrile diphosphonic acid was used in the form of its tetrasodium salt and the measured values obtained were converted for the pure diphosphonic acid.

A short description of assay [3]: Inhibition of conversion of calcium hydrogen phosphate into hydroxyl apatite (protons released). The conditions noted are these: protons released in a calcium phosphate solution supersaturated at 60° C. The procedure: A crucial step in the formation of tartar is the conversion of calcium hydrogen phosphate into hydroxyl apatite. […] To this end, the degree of inhibition of this conversion was measured by determining the protons released in a calcium phosphate solution supersaturated at 60° C. in accordance with the following equation: […]

As to `CC(O)(P(=O)(O)O)P(=O)(O)O`, the “Reduction of the solubility of apatite” value in assay [1] was 53%.

As to `N#CC(O)(P(=O)(O)O)P(=O)(O)O` [Hydroxyacetonitrile diphosphonic acid, hydroxyacetonitrile diphosphonic acid], in assay [1], the “Reduction of the solubility of apatite” value was 65%. In addition, the calcium complexing power in assay [2] is 520 mg CaCO3 /g acid. For the same compound, the “degree of inhibition of conversion of calcium hydrogen phosphate into hydroxyl apatite” value in assay [3] is on record as 91%.

`O=P(O)(O)C(O)P(=O)(O)O` [Hydroxymethane diphosphonic acid]: in assay [3], the “degree of inhibition of conversion of calcium hydrogen phosphate into hydroxyl apatite” value is 81%.

For `O=P(O)(O)C(O)P(=O)(O)O` [drawing 8], the calcium complexing power in assay [2] is on record as 130 mg CaCO3 /g acid.
